Legend:
[1] = molecular target: T1, Recombinant human carbonic anhydrase IX (Homo sapiens, UniProt Q16790); assay: hCA IX inhibition, 4-nitrophenyl acetate (4-NPA) esterase assay; assay type: biochemical; conditions: mean ± standard error
T1 construct: purchased Sino Biological Inc, Beijing, China
Experimental: Carbonic anhydrases are able to catalyze the conversion 4-nitrophenyl acetate (4-NPA) to 4-nitrophenol. […] One × Assay buffer is composed of 15 mmol/L 4-(2-hydroxyethyl)-1-piperazineethanesulfonic acid (HEPES) (pH = 7.4), 0.01% tetraethylene glycol monododecyl ether (BRIJ) and 100 mmol/L NaCl. […] Then, 18 μL of enzyme solution was transferred into 384-well assay plates in triplicate. Stock solutions of the inhibitor (10 mmol/L) were prepared using DMSO as solvent, and then diluted 1:3 with DMSO. […] The normalized data were then fit to a sigmoidal dose-response curve using GraphPad Prism 5.0 software, La Jolla, CA, USA to obtain the IC50. Final enzyme concentration was 5 ng/μL.

[2] = tested on: CA IX over intracellular CA I; design: method as in PMID 25254302; conditions: cited from earlier work
[3] = tested on: CA IX over intracellular CA II; design: method as in PMID 25254302; conditions: cited from earlier work

IC50 [1] [nM]	melting point [°C]	SMILES	selectivity for CA IX over CA I [2] [fold]	selectivity for CA IX over CA II [3] [fold]
21.8 ± 3.18	159.5 to 161.2	Cc1ccc(S(=O)(=O)NC2C(NC(=S)Nc3ccc(S(N)(=O)=O)cc3)OC(CO)C(O)C2O)cc1 [Compound 7a, N-[4-(Aminosulfonyl)phenyl]-N′-[2′-(4′-methylbenzenesulfonylamino)-2′-deoxy-β-D-glucopyranosyl]thiourea]	–	–
23.8 ± 0.51	165 to 166.3	COc1ccc(S(=O)(=O)N[C@@H]2[C@@H](O)[C@H](O)[C@@H](CO)O[C@H]2NC(=S)Nc2ccc(S(N)(=O)=O)cc2)cc1 [Compound 7c, N-[4-(Aminosulfonyl)phenyl]-N′-[2′-(4′-methoxybenzenesulfonylamino)-2′-deoxy-β-D-glucopyranosyl]thiourea]	–	–
25.4 ± 3.8	174.7 to 176	NS(=O)(=O)c1ccc(NC(=S)N[C@@H]2O[C@H](CO)[C@@H](O)[C@H](O)[C@H]2NS(=O)(=O)c2ccc([N+](=O)[O-])cc2)cc1 [Compound 7j, N-[4-(Aminosulfonyl)phenyl]-N′-[2′-(4′-nitrobenzenesulfonylamino)-2′-deoxy-β-D-glucopyranosyl]thiourea]	–	–
21.9 ± 0.49	169 to 170.6	N#Cc1ccc(S(=O)(=O)N[C@@H]2[C@@H](O)[C@H](O)[C@@H](CO)O[C@H]2NC(=S)Nc2ccc(S(N)(=O)=O)cc2)cc1 [Compound 7m, N-[4-(Aminosulfonyl)phenyl]-N′-[2′-(4′-cyanobenzenesulfonylamino)-2′-deoxy-β-D-glucopyranosyl]thiourea]	–	–
21.3 ± 1.29	174.1 to 176	NS(=O)(=O)c1ccc(NC(=S)N[C@@H]2O[C@H](CO)[C@@H](O)[C@H](O)[C@H]2NS(=O)(=O)c2ccc(Br)cc2)cc1 [Compound 7h, N-[4-(Aminosulfonyl)phenyl]-N′-[2′-(4′-bromobenzenesulfonylamino)-2′-deoxy-β-D-glucopyranosyl]thiourea]	–	–
26.9 ± 0.28	167.2 to 168.8	NS(=O)(=O)c1ccc(NC(=S)N[C@@H]2O[C@H](CO)[C@@H](O)[C@H](O)[C@H]2NS(=O)(=O)c2ccc(Cl)cc2)cc1 [Compound 7g, N-[4-(Aminosulfonyl)phenyl]-N′-[2′-(4′-chlorobenzenesulfonylamino)-2′-deoxy-β-D-glucopyranosyl]thiourea]	–	–
24.78 ± 0.05	182.7 to 184.6	NS(=O)(=O)c1ccc(NC(=S)N[C@@H]2O[C@H](CO)[C@@H](O)[C@H](O)[C@H]2NS(=O)(=O)c2ccc3ccccc3c2)cc1 [Compound 7n, N-[4-(Aminosulfonyl)phenyl]-N′-[2′-(naphthalene-2′-sulfonylamino)-2′-deoxy-β-D-glucopyranosyl]thiourea]	–	–
10 ± 0.23	164 to 165.4	NS(=O)(=O)c1ccc(NC(=S)NC2OC(CO)C(O)C(O)C2NS(=O)(=O)c2ccc(C(F)(F)F)cc2)cc1 [Compound 7f, N-[4-(Aminosulfonyl)phenyl]-N′-[2′-(4′-trifluoromethylbenzenesulfonylamino)-2′-deoxy-β-D-glucopyranosyl]thiourea]	–	–
25.6 ± 2.15	178 to 179.6	NS(=O)(=O)c1ccc(NC(=S)N[C@@H]2O[C@H](CO)[C@@H](O)[C@H](O)[C@H]2NS(=O)(=O)c2ccc(F)cc2)cc1 [Compound 7d, N-[4-(Aminosulfonyl)phenyl]-N′-[2′-(4′-fluorobenzenesulfonylamino)-2′-deoxy-β-D-glucopyranosyl]thiourea]	–	–

More lines, now with the values behind:

SMILES	IC50 [1] [nM]	melting point [°C]	selectivity for CA IX over CA I [2] [fold]	selectivity for CA IX over CA II [3] [fold]
CCCS(=O)(=O)NC1C(NC(=S)Nc2ccc(S(N)(=O)=O)cc2)OC(CO)C(O)C1O [Compound 7p, N-[4-(Aminosulfonyl)phenyl]-N′-(2′-n-propylsulfonylamino-2′-deoxy-β-D-glucopyranosyl)thiourea]	389 ± 27.7	159.1 to 160.6	–	–
NS(=O)(=O)c1ccc(NC(=S)N[C@@H]2O[C@H](CO)[C@@H](O)[C@H](O)[C@H]2NS(=O)(=O)c2cccs2)cc1 [Compound 7r, N-[4-(Aminosulfonyl)phenyl]-N′-[2′-(thiophene-2′-sulfonylamino)-2′-deoxy-β-D-glucopyranosyl]thiourea]	65.8 ± 0.08	172.8 to 174	–	–
CC(=O)NC1C(NC(=S)Nc2ccc(S(N)(=O)=O)cc2)OC(CO)C(O)C1O [Compound 9b, N-[4-(Aminosulfonyl)phenyl]-N′-(2′-acetylamino-2′-deoxy-β-D-glucopyranosyl)thiourea]	176 ± 9.45	151.1 to 152.9	–	–
CCS(=O)(=O)N[C@@H]1[C@@H](O)[C@H](O)[C@@H](CO)O[C@H]1NC(=S)Nc1ccc(S(N)(=O)=O)cc1 [Compound 7o, N-[4-(Aminosulfonyl)phenyl]-N′-(2′-ethylsulfonylamino-2′-deoxy-β-D-glucopyranosyl)thiourea]	66.9 ± 3.26	164.8 to 166.2	–	–
NS(=O)(=O)c1ccc(NC(=S)N[C@@H]2O[C@H](CO)[C@@H](O)[C@H](O)[C@H]2NS(=O)(=O)c2cc(F)cc(F)c2)cc1 [Compound 7e, N-[4-(Aminosulfonyl)phenyl]-N′-[2′-(3′,5′-difluorobenzenesulfonylamino)-2′-deoxy-β-D-glucopyranosyl]thiourea]	11.5 ± 0.93	164.4 to 165.2	–	–
NS(=O)(=O)c1ccc(NC(=S)N[C@@H]2O[C@H](CO)[C@@H](O)[C@H](O)[C@H]2NS(=O)(=O)c2cccc(Br)c2)cc1 [Compound 7i, N-[4-(Aminosulfonyl)phenyl]-N′-[2′-(3′-bromobenzenesulfonylamino)-2′-deoxy-β-D-glucopyranosyl]thiourea]	12.6 ± 0.96	172.9 to 174.7	–	–
Cc1ccccc1S(=O)(=O)N[C@@H]1[C@@H](O)[C@H](O)[C@@H](CO)O[C@H]1NC(=S)Nc1ccc(S(N)(=O)=O)cc1 [Compound 7b, N-[4-(Aminosulfonyl)phenyl]-N′-[2′-(2′-methylbenzenesulfonylamino)-2′-deoxy-β-D-glucopyranosyl]thiourea]	21.9 ± 0.37	175.2 to 177.1	–	–
NS(=O)(=O)OCCCCCNS(=O)(=O)[C@@H]1O[C@H](CO)[C@@H](O)[C@H](O)[C@H]1O [Compound A]	–	–	1200	3200
NS(=O)(=O)c1ccc(NC(=S)N[C@@H]2O[C@H](CO)[C@@H](O)[C@H](O)[C@H]2NS(=O)(=O)c2ccccc2[N+](=O)[O-])cc1 [Compound 7k, N-[4-(Aminosulfonyl)phenyl]-N′-[2′-(2′-nitrobenzenesulfonylamino)-2′-deoxy-β-D-glucopyranosyl]thiourea]	15.6 ± 0.44	169.7 to 171.7	–	–
NS(=O)(=O)c1ccc(NC(=S)N[C@@H]2O[C@H](CO)[C@@H](O)[C@H](O)[C@H]2NS(=O)(=O)c2cccc([N+](=O)[O-])c2)cc1 [Compound 7l, N-[4-(Aminosulfonyl)phenyl]-N′-[2′-(3′-nitrobenzenesulfonylamino)-2′-deoxy-β-D-glucopyranosyl]thiourea]	18.9 ± 0.33	177.3 to 179.2	–	–
CN(C)S(=O)(=O)N[C@@H]1[C@@H](O)[C@H](O)[C@@H](CO)O[C@H]1NC(=S)Nc1ccc(S(N)(=O)=O)cc1 [Compound 7q, N-[4-(Aminosulfonyl)phenyl]-N′-[2′-(N′,N′-dimethylsulfonylamino)-2′-deoxy-β-D-glucopyranosyl]thiourea]	72.1 ± 6.15	157.4 to 159.4	–	–
CC(=O)NC1C(NC(=S)Nc2ccc(S(N)(=O)=O)cc2)OC(COC(C)=O)C(OC(C)=O)C1OC(C)=O [Compound 9a, N-[4-(Aminosulfonyl)phenyl]-N′-(2′-acetylamino-3′,4′,6′-tri-O-acetyl-2′-deoxy-β-D-glucopyranosyl)thiourea]	1290 ± 141	141.8 to 142.9	–	–
